Results published in US20030073729A1, “Medicaments for diabetic complication and neuropathy, and uses thereof” (AJINOMOTO CO. INC, priority 2000, published 2003).

Experiments:
GK rat [1] = experiment: Total cholesterol concentration in blood plasma of GK rats; assay type: in vivo; conditions: fasted 17 hours, 4, 14 and 23 weeks after start of administration, glibenclamide 1 mg/kg, nateglinide 50 mg/kg twice a day, FIG. 2
Procedure: In the same manners as those in the Example 1, the groups formation for the test animals, the feeding of the animals and the administration of medicinal compounds (drug) to be tested to the animals were performed. At one week before the start of the drug administration (the age of 13 weeks) for the animals, and at four weeks (the age of 18 weeks), fourteen weeks (the age of 28 weeks) and twenty-three weeks (the age of 37 weeks) each after the start of the drug administration, the blood samples were taken from the jugglar vein after fasting (abstinence from food) for 17 hours. The total cholesterol concentration in the blood plasma was measured by means of the cholesterol oxidase test method using the Fuji […] analyzer.

GK rat [2] = experiment: Motor nerve conduction velocity (tail nerve) in GK rats; assay type: in vivo; conditions: 23 weeks after start of oral administration twice a day, glibenclamide 1 mg/kg, nateglinide 50 mg/kg, control group 48.2±1.3, normal control 55.2±1.8
Procedure: An animal test was conducted on a set of the following four groups, and nateglinide and glibenclamide were each suspended into 0.5% methyl cellulose (MC) to give a solution for administration.
GKrats( :male) as a spontaneous diabetic model and normal Wistar rats ( : male) were introduced at the age of 6 weeks.
From the age of 7 weeks, they were kept under a light control (dark term: 7:00 a.m. to 7:00 p.m.; light term: 7:00 p.m. to next morning 7:00) in a feeding limit condition, in which a feed was given twice a day, each only for 1 hour at an interval of 6 hours (9:00 a.m. to 10:00 a.m., and 3:00 p.m. to 4:00 p.m.).
Everyday from the age of 14 weeks, 0.5% MC, glibenclamide (1 mg/kg) or nateglinide (50 mg/kg) was forcibly administered orally just before each feeding twice a day (at 9:00 a.m. and 3:00 p.m.) at an interval of 6 hours.
Twenty-three weeks after the start of the drug administration (the age of 37 weeks), in order to examine an influence on diabetic complications, the motor nerve conduction velocity was measured according to the method described in Cameronetal., Diabetologia, Vol.39, p.1047-1054 (1996), using a tail nerve.

Zucker Fatty rat = experiment: Triglyceride concentration in blood plasma after fat emulsion loading, Zucker Fatty rat; assay type: in vivo; conditions: for area under the curve (AUC) of the triglyceride until four hours after the load: Zucker Fatty rat, fat emulsion load, nateglinide 50 mg/kg or voglibose 0.2 mg/kg orally
Procedure: (§1) Using the postprandial hyper lipemiamodel rats (10rats) thus obtained, in a crossover method, an influence of the drug administered on a triglyceride concentration in blood plasma (a postprandial hyperlipemia- suppressing effect) was examined. That is, nateglinide (50 mg/kg) or voglibose (0.2 mg/kg), an alpha-glucosidase inhibitor as a control was administered orally, just before loading with the fat emulsion, and the blood samples were taken from a tail vein with time by four hours after the administration.
(§2) A triglyceride concentration in the blood plasma was measured by means of the Fuji Drichem analyzer.
The same examinations were also conducted with the use of a Zucker Fatty rat which is another hyperlipidemic animal.
As a result of fractional analysis of lipoprotein by means of anagarose gel electrophoresis, amarked increase of fractions in the origin area and pre β subfractions, which are thought to contain chylomicron, VLDL (very low density lipoprotein) and so on which are said to correlate with an angiopathy and an arteriosclerosis was observed.

[3] = test system: vWF concentration in the serum; experiment: vWF concentration in serum of GK rats (ELISA); assay type: in vivo; conditions: GK rat, 23 weeks after start of administration, nateglinide 50 mg/kg twice a day; relative to normal control group 100; control group 184.8±24.3
Procedure: In the same manners as those in the Example 1, the feeding of the animals for the test animals and the administration of medicinal compounds (drug) to be tested to the animals were performed. At twenty-three (23) weeks after the start of the drug administration (the age of 37 weeks), the blood samples were taken from the postcaval vein. The vWF concentration in the serum was measured by means of the ELISA method using anti-human vWF antibody (made by DAKO Co.).

[4] = test system: Na^+/K^+-ATPase activity in the sciatic nerve; experiment: Na+/K+-ATPase activity in sciatic nerve of GK rats; assay type: in vivo; conditions: GK rat, 23 weeks after start of oral administration, nateglinide 50 mg/kg twice a day; control group 87.6±9.8, normal control 110.5±7.7
Procedure: In the same manners as those in the Example 1, the group formation for the test animals, the feeding of the animals and the administration of medicinal compounds (drug) to be tested to the animals were performed. At twenty-three weeks after the start of the drug administration (the age of 37 weeks), the rats were killed and the sciatic nerves were excised. A Na^+/K^+-ATPase activity in the sciatic nerve was measured based on the method described in Green et al., Journal of Clinical Investigation, vol.72, 1058-1063 (1983).

GK rats = experiment: Triglyceride concentration in blood plasma after fat emulsion loading, GK rats; assay type: in vivo, rat; conditions: fat emulsion (Intralipos, 2 g/kg) load, crossover, nateglinide 50 mg/kg or voglibose 0.2 mg/kg orally just before loading
Procedure: as §1, §2

SMILES | total cholesterol concentration in the blood plasma (GK rat [1]) | motor nerve conduction velocity (GK rat [2]) [m/sec] | area under the curve (AUC) of the triglyceride until four hours after the load (Zucker Fatty rat) [mg·h/dL] | increase of lipoprotein fractions in the origin area and pre β subfractions (agarose gel electrophoresis) (Zucker Fatty rat; after fat emulsion load, fractions thought to contain chylomicron, VLDL) | vWF concentration in the serum [3] [%] | Na^+/K^+-ATPase activity in the sciatic nerve [4] [μmol ADP/g/hr] | increase of area under the curve (AUC) of the triglyceride during four hours after the loading (GK rats) [mg·h/dL]
COc1ccc(Cl)cc1C(=O)NCCc1ccc(S(=O)(=O)NC(=O)NC2CCCCC2)cc1 [glibenclamide] | change in the cholesterol value was not observed | 52.3±0.9 | – | – | – | – | –
CC(C)[C@H]1CC[C@H](C(=O)N[C@H](Cc2ccccc2)C(=O)O)CC1 [nateglinide, (−)-N-(trans-4-isopropylcyclohexane-carbonyl)-D-phenylalanine] | marked decrease | 55.9±1.3 | 15 ± 69 | suppressed | 124.5±21.5 | 99.5±7.6 | 81 ± 22
OCC(CO)N[C@H]1C[C@](O)(CO)[C@@H](O)[C@H](O)[C@H]1O [voglibose] | – | – | 501 ± 112 | – | – | – | 164 ± 17
